We go through 13 compounds from ChEMBL document CHEMBL1201862, “PubChem BioAssay data set” (2004).

What all share (experiment): NCI-60 cell line screen, 48 h
Test [1] has as its system HOP-62.
For test [2], the system named is SN12C.
Test [3] concerns K562.
The test system of test [4] is OVCAR-5.
Test [5] has as its system OVCAR-8.
Test [6] relates to HCC 2998.
For test [7], the system named is SF-268.
The test system of test [8] is SR.
Test [9] deals with SK-MEL-2.
The test system of test [10] is NCI-H226.
For test [11], the system named is RXF 393.
The subject of test [12] is SK-OV-3.
For test [13], the system named is OVCAR-3.
Test [14] concerns SF-539.
Test [15] deals with CAKI-1.
The test system of test [16] is A498.
Test [17] deals with SF-295.

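Assay format: 96-well plates, 48-hour exposure. At the GI50, growth is halved.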 Active and inactive are the calls of the source. No stated cut-off is given here; in the data, active = GI50 up to about 1.1 µM and inactive = higher.

Take `CCc1cccc(CC)c1NC1=CC(=O)C(=O)c2ccccc21`: the GI50 in [1] was 19.5 µM (inactive); in [2], 27.5 µM (inactive); in test [3] it was 59.4 µM (inactive); in test [4], 17.1 µM (inactive); in [5] it was 16.7 µM (inactive); in test [6] it was 15 µM (inactive). Moreover, the GI50 in [7] is 22.5 µM (inactive); in test [8], 29.9 µM (inactive); in test [9], 14.6 µM (inactive); in test [10], 23 µM (inactive); in test [11] it was 23.9 µM (inactive); in test [12], 31.6 µM (inactive). The GI50 in test [13] is 2.84 µM (inactive); in test [14], 19.5 µM (inactive); in [15], 18.9 µM (inactive); in test [16], 22.3 µM (inactive); in test [17], 13 µM (inactive).

Turning to `Cc1ccc(N2C(=O)N(c3ccc(C)cc3)C3(SC=NN3C)C2=O)cc1` (stereo not drawn), the GI50 is > 100 µM (inactive) in [1]; > 100 µM (inactive) in test [2]; 40.6 µM (inactive) in test [3]; > 100 µM (inactive) in test [5]; 98.9 µM (inactive) in test [6]; > 100 µM (inactive) in [7]. In addition, the GI50 in [8] is 58.3 µM (inactive); in test [10], 72.8 µM (inactive); in [11], 59.6 µM (inactive); in [12], > 100 µM (inactive); in test [13], 19.5 µM (inactive); in [14] it was > 100 µM (inactive). Besides, the GI50 in test [15] is 83.2 µM (inactive); in test [16], 73.1 µM (inactive); in [17], 47.8 µM (inactive).

Consider `O=C1Cc2ccccc2N1c1c(Cl)cccc1Cl`, for which the GI50 is > 100 µM (inactive) in test [1]; 89.1 µM (inactive) in [2]; 21.3 µM (inactive) in [3]; > 100 µM (inactive) in test [4]; 93.3 µM (inactive) in [5]; 76.7 µM (inactive) in [6]. Moreover, the GI50 is 71 µM (inactive) in test [7]; 25.4 µM (inactive) in test [8]; 28.5 µM (inactive) in [9]; 37.9 µM (inactive) in test [10]; 0.424 µM (active) in test [12]; 57.1 µM (inactive) in test [13]. Moreover, the GI50 in test [14] is 81.3 µM (inactive); in test [15] it was 61.1 µM (inactive); in [16], 50.8 µM (inactive); in test [17] it was 38.4 µM (inactive).

For the compound `C/C(=N\NC(=S)Nc1ccc(C(=O)O)cc1)c1ccccn1`, the GI50 in test [1] is 30.5 µM (inactive); in [2], 19.7 µM (inactive); in test [3] it was 40.1 µM (inactive); in [4], 21.3 µM (inactive); in [5] it was 16 µM (inactive); in test [6], 15 µM (inactive). For the same compound, the GI50 was 49.9 µM (inactive) in test [7]; 12.2 µM (inactive) in test [8]; 17.6 µM (inactive) in [9]; 18.2 µM (inactive) in test [10]; 35 µM (inactive) in test [11]; 13.7 µM (inactive) in [13]. For the same compound, the GI50 in [14] was 18.3 µM (inactive); in test [15], 29.5 µM (inactive); in test [16], 25 µM (inactive); in test [17] it was 40.4 µM (inactive).

Consider `CN1C=C(C(N)=O)Cc2ccsc21`, for which the GI50 in [1], in test [2], in test [3], in test [4], in [5] and in [6] was > 100 µM (inactive) each time. In addition, the GI50 in test [7], in [8], in test [9], in test [10], in test [11] and in test [12] was > 100 µM (inactive) each time. Also, the GI50 in test [13], in test [14], in test [15] and in [17] was > 100 µM (inactive) throughout.

With `CC(C)(C)c1cc(Cc2ccc(S(C)(=O)=O)cc2)c(O)c(C(C)(C)C)c1`, the GI50 is 16.2 µM (inactive) in test [1]; 15.3 µM (inactive) in test [2]; 13.8 µM (inactive) in [3]; 14.4 µM (inactive) in test [4]; 14.7 µM (inactive) in test [5]; 16.2 µM (inactive) in test [6]. The GI50 was 13.2 µM (inactive) in test [7]; 13.2 µM (inactive) in test [8]; 16.7 µM (inactive) in test [9]; 12.9 µM (inactive) in test [11]; 21.7 µM (inactive) in test [12]; 16.7 µM (inactive) in test [14]. Moreover, the results for the GI50 in test [15], in test [16] and in test [17] were 16.2 µM (inactive), 16.1 µM (inactive) and 13.2 µM (inactive), respectively.

In the case of `Cc1cccc(NC(=O)C(=O)C(C(=O)c2ccccc2F)C2OC(=O)c3ccccc32)c1Cl` (stereo not drawn), the GI50 is 37.4 µM (inactive) in test [1]; 36.7 µM (inactive) in [2]; 28.6 µM (inactive) in [3]; 60 µM (inactive) in [4]; 20.1 µM (inactive) in test [5]; 22.5 µM (inactive) in [6]. Further, the GI50 in test [7] is 21.4 µM (inactive); in [8], 26.5 µM (inactive); in test [9], 16.8 µM (inactive); in [10], 32.4 µM (inactive); in test [12], 37.2 µM (inactive); in [14], 18.2 µM (inactive). Moreover, the GI50 was 61.4 µM (inactive) in test [15], 60.7 µM (inactive) in test [16] and 36.4 µM (inactive) in [17].

Consider `CN(C)c1ccc(C=C2C(=O)OC(C)(C)OC2=O)cc1Br`, for which the GI50 was > 100 µM (inactive) in test [1]; > 100 µM (inactive) in test [2]; 82.6 µM (inactive) in [3]; > 100 µM (inactive) in test [4]; > 100 µM (inactive) in test [5]; > 100 µM (inactive) in test [6]. Moreover, the GI50 was > 100 µM (inactive) in [7]; 59.6 µM (inactive) in test [8]; > 100 µM (inactive) in [9]; > 100 µM (inactive) in test [10]; > 100 µM (inactive) in test [11]; > 100 µM (inactive) in test [12]. Besides, the GI50 in [13], in [14], in [15] and in [17] was > 100 µM (inactive) each time.

As to `COc1ccc(NC(=O)C(=O)Cc2ccc([N+](=O)[O-])c([N+](=O)[O-])c2CC(=O)C(=O)Nc2ccc(OC)cc2OC)c(OC)c1`, the GI50 in [1], in [2], in test [3], in test [4], in test [5] and in test [6] was > 100 µM (inactive) each time. Further, the GI50 in test [7], in test [8], in test [10], in test [11], in test [12] and in test [13] was > 100 µM (inactive) in each case. Further, the GI50 in test [15], in [16] and in [17] was > 100 µM (inactive) each time.

As for `C#CCOCn1cnc2ncnc(Cl)c21`, the GI50 in test [1], in [2], in test [3], in test [4], in test [5] and in test [6] was > 100 µM (inactive) in each case. The GI50 in test [7], in test [8], in [9], in test [10], in test [12] and in test [13] was > 100 µM (inactive) throughout. In addition, the GI50 in [14], in test [15], in test [16] and in [17] was > 100 µM (inactive) throughout.

Take `CC(C)COC(=O)N1N=NC2C3CC(=O)C(O3)C21` (stereo not drawn): the GI50 in test [1], in test [2], in test [3], in test [4], in [5] and in test [6] was > 100 µM (inactive) each time. For the same compound, the GI50 in test [7], in test [8], in test [9], in test [11], in test [12] and in test [13] was > 100 µM (inactive) throughout. Also, the GI50 in [14], in test [15], in test [16] and in test [17] was > 100 µM (inactive) in each case.

With `c1ccc(N2CCN(CCCN3CCc4c([nH]c5ccccc45)C3c3cccnc3)CC2)cc1` (stereo not drawn), the GI50 is > 100 µM (inactive) in test [1]; > 54.6 µM (inactive) in test [2]; 23.6 µM (inactive) in test [3]; > 100 µM (inactive) in [4]; > 100 µM (inactive) in test [5]; 40.4 µM (inactive) in test [6]. Further, the GI50 in test [8] was 27 µM (inactive); in test [9] it was > 100 µM (inactive); in test [10], > 100 µM (inactive); in test [11], > 100 µM (inactive); in test [12], > 100 µM (inactive); in test [13] it was > 49.8 µM (inactive). For the same compound, the GI50 in [14] was 83.9 µM (inactive); in test [15], > 100 µM (inactive); in [16], > 100 µM (inactive); in test [17], > 100 µM (inactive).

In the case of `Cc1ccc2c(c1-c1ccccc1)C(=O)OC2`, the GI50 in test [1] was > 100 µM (inactive); in [2], > 100 µM (inactive); in test [3] it was 56.1 µM (inactive); in test [5] it was > 100 µM (inactive); in test [6] it was > 100 µM (inactive); in test [7] it was > 100 µM (inactive). Further, the GI50 in test [8] is 90.6 µM (inactive); in test [9], > 100 µM (inactive); in test [10], > 100 µM (inactive); in test [11] it was > 100 µM (inactive); in [12], > 100 µM (inactive); in [13], 76.7 µM (inactive). Besides, the GI50 in [15] and in [16] was > 100 µM (inactive) throughout.
